≈ marks a conversion by molar mass, not a printed value.
Legend:
[1] = target: T1, Tyrosine-protein kinase JAK1 (Homo sapiens, UniProt P23458); assay: Inhibition of human recombinant JAK1
Homo sapiens [2] = organism: Homo sapiens; assay: Selectivity index, ratio of IC50 for human recombinant JAK2 to IC50 for human recombinant JAK1
[3] = Kinetic solubility of the compound at pH 7.4; settings: buffer
[4] = Plasma protein binding in rat
[5] = Tmax in rat at 5 mg/kg, po; type: ADME, organism-based; design: dose 5 mg/kg, route oral; settings: in vivo
[6] = AUC (0 to infinity) in rat at 5 mg/kg, po; type: ADME, organism-based; design: time infinity, dose 5 mg/kg, route oral; settings: plasma
[7] = Half life in rat at 5 mg/kg, po; type: ADME, organism-based; design: dose 5 mg/kg, route oral; settings: in vivo
[8] = target: T1, Tyrosine-protein kinase JAK1; assay: Inhibition of JAK1 in human whole blood assessed as inhibition of IL-6-induced pSTAT1
[9] = target: T2, Tyrosine-protein kinase JAK2 (Homo sapiens, UniProt O60674); assay: Inhibition of JAK2 in human whole blood assessed as inhibition of GM-CSF-induced pSTAT5
T2 sequence (O60674 whole entry): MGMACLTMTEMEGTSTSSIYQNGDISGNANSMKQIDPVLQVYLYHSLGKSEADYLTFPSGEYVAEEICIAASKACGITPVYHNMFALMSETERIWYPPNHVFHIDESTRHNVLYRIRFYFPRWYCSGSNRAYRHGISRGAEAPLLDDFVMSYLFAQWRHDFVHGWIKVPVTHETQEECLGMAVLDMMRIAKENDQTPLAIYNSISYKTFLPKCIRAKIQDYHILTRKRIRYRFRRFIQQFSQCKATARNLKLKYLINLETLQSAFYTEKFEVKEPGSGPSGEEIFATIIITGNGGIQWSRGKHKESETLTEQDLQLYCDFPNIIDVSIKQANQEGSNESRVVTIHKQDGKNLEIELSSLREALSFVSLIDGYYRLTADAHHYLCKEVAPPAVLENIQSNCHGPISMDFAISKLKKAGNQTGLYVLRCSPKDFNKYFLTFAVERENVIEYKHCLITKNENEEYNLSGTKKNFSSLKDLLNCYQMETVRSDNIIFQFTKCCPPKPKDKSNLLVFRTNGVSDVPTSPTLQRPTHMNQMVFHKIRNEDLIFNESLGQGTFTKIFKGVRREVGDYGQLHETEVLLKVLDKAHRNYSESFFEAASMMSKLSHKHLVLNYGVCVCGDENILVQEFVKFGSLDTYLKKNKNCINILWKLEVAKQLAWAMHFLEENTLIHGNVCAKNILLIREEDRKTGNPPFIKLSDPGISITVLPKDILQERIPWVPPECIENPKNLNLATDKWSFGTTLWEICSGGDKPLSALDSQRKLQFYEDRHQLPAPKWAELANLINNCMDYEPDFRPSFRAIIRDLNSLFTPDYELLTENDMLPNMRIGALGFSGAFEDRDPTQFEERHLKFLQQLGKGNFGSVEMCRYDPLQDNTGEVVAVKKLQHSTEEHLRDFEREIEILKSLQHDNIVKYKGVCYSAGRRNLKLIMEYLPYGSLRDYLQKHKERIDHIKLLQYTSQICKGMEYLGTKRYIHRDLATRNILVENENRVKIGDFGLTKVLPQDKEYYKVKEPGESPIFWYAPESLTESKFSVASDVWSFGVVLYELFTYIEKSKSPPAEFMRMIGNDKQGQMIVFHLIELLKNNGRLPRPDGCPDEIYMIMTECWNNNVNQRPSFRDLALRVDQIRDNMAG

[10] = Metabolic stability in rat liver microsomes assessed as compound remaining after 60 mins; type: ADME; settings: read-out: Stability
Homo sapiens [11] = organism: Homo sapiens; assay: Selectivity index, ratio of IC50 for human recombinant JAK3 to IC50 for human recombinant JAK1
Homo sapiens [12] = organism: Homo sapiens; assay: Selectivity index, ratio of IC50 for human recombinant TYK2 to IC50 for human recombinant JAK1
[13] = AUC (0 to infinity) in rat at 1 mg/kg, iv; type: ADME, organism-based; design: time infinity, dose 1 mg/kg, route intravenous; settings: plasma
[14] = Clearance in rat at 1 mg/kg, iv; type: ADME, organism-based; design: dose 1 mg/kg, route intravenous; settings: in vivo
[15] = Half life in rat at 1 mg/kg, iv; type: ADME, organism-based; design: dose 1 mg/kg, route intravenous; settings: in vivo
[16] = Bioavailability in rat at 1 mg/kg, iv; type: ADME, organism-based; settings: in vivo
[17] = Oral bioavailability in rat at 5 mg/kg; type: ADME, organism-based; settings: in vivo
[18] = target: T2, Tyrosine-protein kinase JAK2; assay: Inhibition of human recombinant JAK2
[19] = target: Tyrosine-protein kinase JAK3 (Homo sapiens, UniProt P52333); assay: Inhibition of human recombinant JAK3
Sequence of Tyrosine-protein kinase JAK3 (P52333 whole entry): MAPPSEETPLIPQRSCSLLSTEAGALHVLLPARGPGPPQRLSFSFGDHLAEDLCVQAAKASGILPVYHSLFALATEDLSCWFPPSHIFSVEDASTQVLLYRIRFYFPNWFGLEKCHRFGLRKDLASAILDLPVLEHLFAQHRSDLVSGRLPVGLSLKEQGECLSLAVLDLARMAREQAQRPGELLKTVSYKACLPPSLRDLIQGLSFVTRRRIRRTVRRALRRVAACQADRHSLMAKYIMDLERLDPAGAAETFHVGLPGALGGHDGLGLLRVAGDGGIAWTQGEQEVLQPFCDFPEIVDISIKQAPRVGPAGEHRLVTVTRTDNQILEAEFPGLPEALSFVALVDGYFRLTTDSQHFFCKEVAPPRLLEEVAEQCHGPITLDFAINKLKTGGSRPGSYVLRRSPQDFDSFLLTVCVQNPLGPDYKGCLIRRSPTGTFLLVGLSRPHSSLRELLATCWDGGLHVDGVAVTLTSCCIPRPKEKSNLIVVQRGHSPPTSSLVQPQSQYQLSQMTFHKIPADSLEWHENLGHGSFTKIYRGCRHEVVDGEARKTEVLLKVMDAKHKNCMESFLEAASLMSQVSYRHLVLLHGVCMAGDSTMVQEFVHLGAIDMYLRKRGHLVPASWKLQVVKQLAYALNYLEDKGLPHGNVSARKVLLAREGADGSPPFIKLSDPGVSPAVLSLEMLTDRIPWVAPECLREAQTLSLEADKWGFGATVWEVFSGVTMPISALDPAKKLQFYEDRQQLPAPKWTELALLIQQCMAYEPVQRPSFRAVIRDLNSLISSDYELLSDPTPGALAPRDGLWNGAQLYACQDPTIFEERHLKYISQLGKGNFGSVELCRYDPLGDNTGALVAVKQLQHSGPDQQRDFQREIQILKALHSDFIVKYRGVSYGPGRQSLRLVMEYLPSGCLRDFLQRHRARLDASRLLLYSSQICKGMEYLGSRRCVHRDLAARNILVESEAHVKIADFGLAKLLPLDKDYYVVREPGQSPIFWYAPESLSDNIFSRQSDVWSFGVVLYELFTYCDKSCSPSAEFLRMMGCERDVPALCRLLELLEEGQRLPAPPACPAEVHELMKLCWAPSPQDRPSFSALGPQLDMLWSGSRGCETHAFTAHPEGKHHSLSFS

[20] = target: Non-receptor tyrosine-protein kinase TYK2 (Homo sapiens, UniProt P29597); assay: Inhibition of human recombinant TYK2
[21] = target: Fibroblast growth factor receptor 3 (Homo sapiens, UniProt P22607); assay: Inhibition of FGFR3 (unknown origin)
Sequence of Fibroblast growth factor receptor 3 (P22607 whole entry): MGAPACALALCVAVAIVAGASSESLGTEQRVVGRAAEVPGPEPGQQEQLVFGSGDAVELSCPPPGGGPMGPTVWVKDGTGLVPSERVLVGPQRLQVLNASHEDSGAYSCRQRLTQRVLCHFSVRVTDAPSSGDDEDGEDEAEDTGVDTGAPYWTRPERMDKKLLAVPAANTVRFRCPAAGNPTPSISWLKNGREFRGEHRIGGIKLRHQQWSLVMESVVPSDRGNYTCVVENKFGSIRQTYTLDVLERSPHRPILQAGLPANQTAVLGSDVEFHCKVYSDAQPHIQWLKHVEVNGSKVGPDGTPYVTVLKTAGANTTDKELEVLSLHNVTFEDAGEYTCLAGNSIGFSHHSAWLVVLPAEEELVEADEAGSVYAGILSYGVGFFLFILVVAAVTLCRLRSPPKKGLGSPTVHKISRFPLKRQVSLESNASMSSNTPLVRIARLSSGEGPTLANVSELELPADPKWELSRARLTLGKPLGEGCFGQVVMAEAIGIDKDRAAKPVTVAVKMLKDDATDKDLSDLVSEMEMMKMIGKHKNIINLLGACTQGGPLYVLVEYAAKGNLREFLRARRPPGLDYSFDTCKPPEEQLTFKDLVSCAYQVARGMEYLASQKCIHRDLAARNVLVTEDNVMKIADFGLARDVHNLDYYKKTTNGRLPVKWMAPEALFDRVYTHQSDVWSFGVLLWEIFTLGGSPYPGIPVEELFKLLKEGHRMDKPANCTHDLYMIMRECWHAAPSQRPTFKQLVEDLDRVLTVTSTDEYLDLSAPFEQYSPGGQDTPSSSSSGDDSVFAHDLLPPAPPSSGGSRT

[22] = target: Glycogen synthase kinase-3 beta (Homo sapiens, UniProt P49841); assay: Inhibition of GSK3beta (unknown origin)
[23] = target: Inhibitor of nuclear factor kappa-B kinase subunit beta (Homo sapiens, UniProt O14920); assay: Inhibition of IKKbeta (unknown origin)
[24] = target: Tyrosine-protein kinase Lck (Homo sapiens, UniProt P06239); assay: Inhibition of LCK (unknown origin)
[25] = target: MAP kinase-activated protein kinase 5 (Homo sapiens, UniProt Q8IW41); assay: Inhibition of MAPKAPK5 (unknown origin)
Sequence of MAP kinase-activated protein kinase 5 (Q8IW41 whole entry): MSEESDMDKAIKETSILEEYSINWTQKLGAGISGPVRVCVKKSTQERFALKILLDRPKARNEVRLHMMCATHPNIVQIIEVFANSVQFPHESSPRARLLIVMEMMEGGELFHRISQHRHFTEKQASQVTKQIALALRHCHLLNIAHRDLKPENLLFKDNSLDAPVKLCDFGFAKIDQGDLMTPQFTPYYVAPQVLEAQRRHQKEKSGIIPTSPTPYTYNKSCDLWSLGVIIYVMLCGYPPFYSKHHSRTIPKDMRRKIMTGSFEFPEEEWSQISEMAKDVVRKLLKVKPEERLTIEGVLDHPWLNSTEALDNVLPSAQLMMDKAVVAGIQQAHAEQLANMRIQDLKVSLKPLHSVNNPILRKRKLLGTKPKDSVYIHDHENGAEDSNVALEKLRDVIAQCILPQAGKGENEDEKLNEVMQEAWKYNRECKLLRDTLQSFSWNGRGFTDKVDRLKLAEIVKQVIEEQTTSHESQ

[26] = target: Mitogen-activated protein kinase 14 (Homo sapiens, UniProt Q16539); assay: Inhibition of p38alpha (unknown origin)
Sequence of Mitogen-activated protein kinase 14 (Q16539 whole entry): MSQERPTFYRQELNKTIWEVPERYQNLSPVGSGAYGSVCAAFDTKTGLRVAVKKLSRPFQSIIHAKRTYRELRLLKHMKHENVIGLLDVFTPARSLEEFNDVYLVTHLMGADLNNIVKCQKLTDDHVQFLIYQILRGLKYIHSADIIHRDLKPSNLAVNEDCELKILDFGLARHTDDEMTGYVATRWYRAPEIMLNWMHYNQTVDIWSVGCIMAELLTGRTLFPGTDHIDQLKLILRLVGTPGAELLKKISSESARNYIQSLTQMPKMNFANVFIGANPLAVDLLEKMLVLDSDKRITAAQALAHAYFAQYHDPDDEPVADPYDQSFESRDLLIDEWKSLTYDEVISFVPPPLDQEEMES

[27] = Inhibition of PKA (unknown origin); design: species or system Homo sapiens
[28] = target: Protein-tyrosine kinase 2-beta (Homo sapiens, UniProt Q14289); assay: Inhibition of PYK2 (unknown origin)
[29] = target: Receptor-interacting serine/threonine-protein kinase 2 (Homo sapiens, UniProt O43353); assay: Inhibition of RIPK2 (unknown origin)
[30] = target: Rho-associated protein kinase 1 (Homo sapiens, UniProt Q13464); assay: Inhibition of ROCK1 (unknown origin)
[31] = target: Tyrosine-protein kinase SYK (Homo sapiens, UniProt P43405); assay: Inhibition of SYK (unknown origin)
[32] = target: Mitogen-activated protein kinase kinase kinase 7 (Homo sapiens, UniProt O43318); assay: Inhibition of TAK1 (unknown origin)
[33] = target: Serine/threonine-protein kinase TBK1 (Homo sapiens, UniProt Q9UHD2); assay: Inhibition of TBK1 (unknown origin)
[34] = target: Cyclin-dependent kinase 2 (Homo sapiens, UniProt P24941); assay: Inhibition of CDK2 (unknown origin)

T1 sequence (P23458 whole entry): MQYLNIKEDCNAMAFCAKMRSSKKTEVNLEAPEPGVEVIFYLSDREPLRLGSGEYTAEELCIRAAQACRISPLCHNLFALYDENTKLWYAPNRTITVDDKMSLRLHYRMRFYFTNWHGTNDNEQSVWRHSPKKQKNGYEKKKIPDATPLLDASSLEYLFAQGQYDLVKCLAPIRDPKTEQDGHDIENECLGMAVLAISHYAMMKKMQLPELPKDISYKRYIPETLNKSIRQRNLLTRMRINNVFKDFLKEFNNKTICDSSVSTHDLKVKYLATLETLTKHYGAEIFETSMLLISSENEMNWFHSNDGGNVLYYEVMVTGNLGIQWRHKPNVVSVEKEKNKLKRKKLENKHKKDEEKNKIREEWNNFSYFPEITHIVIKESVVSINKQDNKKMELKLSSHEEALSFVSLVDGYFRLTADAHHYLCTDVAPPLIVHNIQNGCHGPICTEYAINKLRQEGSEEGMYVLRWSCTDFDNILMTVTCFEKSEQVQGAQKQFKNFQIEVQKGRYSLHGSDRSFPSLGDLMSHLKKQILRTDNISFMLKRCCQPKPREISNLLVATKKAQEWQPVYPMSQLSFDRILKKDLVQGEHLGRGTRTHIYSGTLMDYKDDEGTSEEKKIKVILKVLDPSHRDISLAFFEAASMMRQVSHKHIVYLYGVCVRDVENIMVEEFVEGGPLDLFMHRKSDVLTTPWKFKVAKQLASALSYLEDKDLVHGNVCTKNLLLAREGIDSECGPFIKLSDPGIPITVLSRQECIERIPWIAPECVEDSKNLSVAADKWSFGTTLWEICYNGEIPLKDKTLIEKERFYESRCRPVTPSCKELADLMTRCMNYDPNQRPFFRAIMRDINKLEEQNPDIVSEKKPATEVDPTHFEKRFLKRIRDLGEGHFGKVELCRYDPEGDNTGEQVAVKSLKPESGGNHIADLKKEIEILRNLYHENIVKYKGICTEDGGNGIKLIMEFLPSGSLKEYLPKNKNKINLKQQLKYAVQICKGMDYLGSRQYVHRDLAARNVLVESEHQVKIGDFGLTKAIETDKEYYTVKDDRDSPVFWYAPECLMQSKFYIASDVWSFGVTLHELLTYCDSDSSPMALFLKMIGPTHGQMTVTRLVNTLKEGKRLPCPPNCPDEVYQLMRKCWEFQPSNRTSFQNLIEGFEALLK

| Structure (SMILES) | IC50 ([1]; read-out: IC50) | Ratio IC50 (Homo sapiens [2]) | Ratio IC50 (Homo sapiens [11]) | Ratio IC50 (Homo sapiens [12]) | further results |
| --- | --- | --- | --- | --- | --- |
| COc1ccc(-c2cccc3nc(Nc4ccc(NC(C)=O)cc4)nn23)cc1 | 0.0028 µM | 0.9 |  |  |  |
| CCC(=O)Nc1nc2cccc(-c3ccc(OC)cc3)n2n1 | 1.98 µM | 0.5 |  |  |  |
| O=C(Nc1nc2cccc(-c3ccc(CN4CCC(F)(F)CC4)cc3)n2n1)C1CC1 | 0.027 µM | 1.1 | 8.7 | 3.2 | solubility kinetic [3]: 27 µg/mL (≈ 65.6 µM); fraction unbound [4]: 0.3; Tmax [5]: 15 min; AUC(0-inf) [6]: 690 ng·h/mL; half-life [7]: 55.2 min; IC50 [8]: 2.75 µM; IC50 [9]: > 10 µM; remaining at 1 h [10]: 26% |
| COc1ccc(-c2cccc3nc(NC(=O)c4ccccc4)nn23)cc1 | > 10 µM |  |  |  |  |
| N#Cc1ccc(OCC2CN(c3ccc(-c4cccc5nc(NC(=O)C6CC6)nn45)cc3)C2)cc1 | 0.147 µM | 7.5 |  |  |  |
| O=C(Nc1nc2nccc(-c3ccccc3)n2n1)C1CC1 |  |  |  |  | IC50 [1]: Not Active |
| O=C(Nc1nc2cccc(-c3ccc(CNC4CCS(=O)(=O)C4)cc3)n2n1)C1CC1 (stereo not given) | 0.041 µM | 2.1 | 8 | 9.6 | solubility kinetic [3]: > 85 µg/mL; IC50 [8]: 6.15 µM; IC50 [9]: > 30 µM; remaining at 1 h [10]: 85% |
| COc1ccc(-c2cccc3nc(N)nn23)cc1 | 3.06 µM | 0.6 |  |  |  |
| COc1ncc(-c2cccc3nc(NC(=O)C4CC4)nn23)cn1 | 0.975 µM | 2.1 | > 4.1 | > 4.1 |  |
| O=C(Nc1nc2cccc(-c3ccc(CN4CCOCC4)cc3)n2n1)C1CC1 |  |  |  |  | solubility kinetic [3]: > 38 µg/mL; fraction unbound [4]: 0.29; Tmax [5]: 19.8 min; AUC(0-inf) [13]: 470 ng·h/mL; AUC(0-inf) [6]: 1440 ng·h/mL; clearance [14]: 35.3 mL/min/kg; half-life [15]: 44.4 min; half-life [7]: 55.2 min; bioavailability [16]: 62%; bioavailability [17]: 45%; IC50 [9]: > 30 µM; remaining at 1 h [10]: 38% |
| CCOc1ccc(-c2nccc3nc(NC(=O)C4CC4)nn23)cc1 | 0.418 µM | 1.5 |  |  |  |
| COc1ccc(-c2cc(C(F)(F)F)cn3nc(NC(=O)C4CC4)nc23)cc1 |  |  |  |  | IC50 [1]: Not Active |
| O=C(Nc1nc2cccc(-c3ccc(Cc4ccc(O)c(CO)c4)cc3)n2n1)C1CC1 | 0.0083 µM | 1.7 |  |  | solubility kinetic [3]: 28 µg/mL (≈ 67.6 µM) |
| O=C(Nc1nc2cccc(-c3ccc(NS(=O)(=O)C4CC4)cc3)n2n1)C1CC1 |  |  |  |  | fraction unbound [4]: 0.1 |
| O=C(Nc1nc2cccc(-c3cccc4ncccc34)n2n1)C1CC1 | 2.55 µM | 0.7 | 1.5 | > 1.6 |  |
| CCOc1ccc(-c2cccn3nc(NC(=O)C4CC4)nc23)cc1 | 0.067 µM | 2.2 |  |  |  |
| O=C(Nc1nc2cccc(-c3ccc(CNC(=O)C(F)(F)F)cc3)n2n1)C1CC1 | 0.016 µM | 2.6 | 9.5 | 6.2 | solubility kinetic [3]: > 80 µg/mL; fraction unbound [4]: 0.17; IC50 [8]: 4.47 µM; IC50 [9]: > 30 µM; remaining at 1 h [10]: 80% |
| COCc1cccc(-c2cccc3nc(NC(=O)C4CC4)nn23)c1 | 0.572 µM | 0.9 | 3.8 | 2.8 |  |
| CCOc1ccc(-c2cccc3nc(NC(=O)C4CC4)nn23)cc1 | 0.027 µM | 2 |  |  |  |
| O=C(Nc1nc2cccc(-c3cccc(OCc4ccccc4)c3)n2n1)C1CC1 | 0.103 µM | 1 | 3 | 18 |  |
| N#CCc1ccccc1NCc1ccc(-c2cccc3nc(NC(=O)C4CC4)nn23)cc1 | 0.0014 µM | 11.4 | 26 | 9 | solubility kinetic [3]: 9.4 µg/mL (≈ 22.2 µM); fraction unbound [4]: 0.01 |
| CCOc1ccc(-c2c(OC)ccc3nc(NC(=O)C4CC4)nn23)cc1 | 3.01 µM | > 1 |  |  |  |
| COc1ccc(-c2cccc3nc(N(C)C(=O)C4CC4)nn23)cc1 | > 10 µM |  |  |  |  |

| Structure (SMILES) | IC50 ([1]; read-out: IC50) | Ratio IC50 (Homo sapiens [2]) | Ratio IC50 (Homo sapiens [11]) | Ratio IC50 (Homo sapiens [12]) | further results |
| --- | --- | --- | --- | --- | --- |
| COc1ccc(-c2cccc3nc(-c4cccnc4)nn23)cc1 | > 10 µM |  |  |  |  |
| CC(C)(C)OCc1ccccc1-c1cccc2nc(NC(=O)C3CC3)nn12 | > 10 µM |  |  |  |  |
| COc1ccc(-c2cccc3nc(NCC4CC4)nn23)cc1 | > 10 µM |  |  |  |  |
| COc1ccc(-c2cccc3nc(NC(C)=O)nn23)cc1 | > 4 µM |  |  |  |  |
| CCOc1ccc(-c2cncc3nc(NC(=O)C4CC4)nn23)cc1 | 3.1 µM | 1 |  |  |  |
| COc1ccc(-c2cccc3nc(NC(=O)C(C)C)nn23)cc1 | > 10 µM |  |  |  |  |
| COc1ccc(-c2cccc3nc(NC(=O)C4(C)CC4)nn23)cc1 | > 10 µM |  |  |  |  |
| O=C(Nc1nc2cccc(-c3ccccc3)n2n1)C1CC1 | 0.184 µM | 2.3 | 7.1 | 4.1 |  |
| CN1CCN(Cc2ccc(-c3cccc4nc(NC(=O)C5CC5)nn34)cc2)CC1 | > 4 µM |  |  |  |  |
| COc1ccc(-c2cccc3nc(N4CCCCC4)nn23)cc1 | > 10 µM |  |  |  |  |
| COc1ccc(-c2cccc3nc(NC(=O)C4CC4)nn23)cc1 | 0.07 µM | 2 | 7.5 | 7.4 | IC50 [18]: 0.138 µM; IC50 [19]: 0.528 µM; IC50 [20]: 0.519 µM; IC50 [21]: > 5.74 µM; IC50 [22]: 7.11 µM; IC50 [23]: 24.7 µM; IC50 [24]: 4.44 µM; IC50 [25]: > 10 µM; IC50 [26]: > 10 µM; IC50 [27]: 40 µM; IC50 [28]: 3.18 µM; IC50 [29]: 51 µM; IC50 [30]: > 10 µM; IC50 [31]: 2.27 µM; IC50 [32]: > 10 µM; IC50 [33]: > 4 µM; IC50 [34]: > 10 µM |
| O=C(Nc1nc2cccc(-c3cn[nH]c3)n2n1)C1CC1 | 1.35 µM | 1.1 | 2.1 | > 3 |  |
| O=C(Nc1nc2cccc(-c3ccc(Cl)cc3)n2n1)C1CC1 | 0.156 µM | 3.1 | 7.4 | 28.2 |  |
| O=C(NCCc1ccn(-c2ccccc2)n1)c1ccc(-c2cccc3nc(NC(=O)C4CC4)nn23)cc1 | 0.0006 µM | 5.3 | 21 | 66 | solubility kinetic [3]: 4 µg/mL (≈ 8.14 µM); fraction unbound [4]: 0.01 |
| COc1ccccc1-c1cccc2nc(NC(=O)C3CC3)nn12 | 0.371 µM | 1.5 | 2 | 2.8 |  |
| COc1ccc(-c2cccc3nc(NS(=O)(=O)C4CC4)nn23)cc1 | 5.74 µM |  |  |  |  |
| CNC(=O)Nc1nc2cccc(-c3ccc(OC)cc3)n2n1 | 0.413 µM | 0.7 |  |  |  |
| COc1ccc(-c2cccc3nc(NC(=O)C4CC4)nn23)cn1 | 0.547 µM | 1.5 | 4.4 | 6.2 |  |
| C[C@@H]1CCN(C(=O)CC#N)C[C@@H]1N(C)c1ncnc2[nH]ccc12 [TOFACITINIB] |  |  |  |  | remaining at 1 h [10]: 27% |
| O=C(Nc1nc2cccc(-c3cccc(Cl)c3)n2n1)C1CC1 | 0.142 µM | 1.1 | 6.7 | 2.4 |  |
| Nc1nc2cccc(-c3ccc(CN4CCS(=O)(=O)CC4)cc3)n2n1 |  |  |  |  | IC50 [8]: 11.9 µM; IC50 [9]: > 100 µM |
| COc1ccc(-c2cccc3nc(N(C)C)nn23)cc1 | > 10 µM |  |  |  |  |

Reference: ChEMBL document CHEMBL3351789, “Triazolopyridines as selective JAK1 inhibitors: from hit identification to GLPG0634” (J Med Chem, 2014)
